Results on 1 cell line are retold here after the supplement of paper PMC10307832.

Holding throughout (experiment): relative viability (nuclei count vs DMSO), 5 days (fraction); higher = more cells survive
Compound in test [1]: CC1(COc2ccc3c(c2)ncn3-c2ccc3cccc(N4CCC(N)CC4)c3n2)COC1 [Crenolanib] + Cc1nc(Nc2ncc(C(=O)Nc3c(C)cccc3Cl)s2)cc(N2CCN(CCO)CC2)n1 [Dasatinib] (partner 0.075 µM)
The method in brief: (§1)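 Lung cancer cell lines were pin-tool dosed in 1536-well plates on the day after seeding, with either a lone drug or a fixed anchor-drug dose plus five library-drug doses (not always all listed) in √10 steps. Nuclei were counted on 4× images after 5 days. Relative viability is the ratio of treated-well to vehicle-well nuclei counts, with each value a median of duplicate plates.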

Compound in test [2]: O=C1NC(=O)[C@@H](c2cn3c4c(cccc24)CCC3)[C@@H]1c1c[nH]c2ccccc12 [Tivantinib] + CC(=O)Nc1cccc(-n2c(=O)n(C3CC3)c(=O)c3c(Nc4ccc(I)cc4F)n(C)c(=O)c(C)c32)c1 [Trametinib] (partner 0.02 µM)
The method in brief:
as §1

Compound in test [3]: O=C1NC(=O)[C@@H](c2cn3c4c(cccc24)CCC3)[C@@H]1c1c[nH]c2ccccc12 [Tivantinib] + CC1(C)CCC(c2ccc(Cl)cc2)=C(CN2CCN(c3ccc(C(=O)NS(=O)(=O)c4ccc(N[C@H](CCN5CCOCC5)CSc5ccccc5)c(S(=O)(=O)C(F)(F)F)c4)cc3)CC2)C1 [Navitoclax] (partner 0.5 µM)
The method in brief: as §1

Compound in test [4]: O=C1NC(=O)[C@@H](c2cn3c4c(cccc24)CCC3)[C@@H]1c1c[nH]c2ccccc12 [Tivantinib] + COc1cccc2cc(-c3nc([C@H]4CC[C@H](C(=O)O)CC4)n4ncnc(N)c34)[nH]c12 [OSI-027] (partner 0.5 µM)
The method, boiled down:
as §1

For UMC-11, the relative viability is 0.45 in test [1] (first compound 0.01 µM); 0.52 in test [1] (first compound 0.03162 µM); 0.427 in test [1] (first compound 0.1 µM); 0.506 in test [1] (first compound 0.3162 µM); 0.481 in test [1] (first compound 1 µM); 0.678 in test [2] (first compound 0.01 µM). The relative viability in test [2] (first compound 0.03162 µM) amounted to 0.451; in test [2] (first compound 0.1 µM) it was 0.666; in test [2] (first compound 0.3162 µM), 0.693; in test [3] (first compound 0.01 µM), 0.316; in test [3] (first compound 0.03162 µM), 0.334; in test [3] (first compound 0.1 µM) it was 0.29. For the same cell line, the relative viability is 0.34 in test [3] (first compound 0.3162 µM); 0.451 in test [4] (first compound 0.01 µM); 0.456 in test [4] (first compound 0.03162 µM); 0.465 in test [4] (first compound 0.1 µM); 0.521 in test [4] (first compound 0.3162 µM).
